From patent US9480740B2, “Synthetic glucopyranosyl lipid adjuvants” (priority 2009, dated 2016) come the findings set out here.

The test system of one experiment is human whole blood cells. Kind of experiment: Induction of immunostimulatory cytokines (MIP-1-α and TNF-α ELISA) in human whole blood. The class given is cell-based. Conditions: human whole blood from two donors, 1:5 serial dilutions, 20 hour incubation. The protocol:
In this example, human whole blood cells were stimulated with Compound IX and ELISA assays were performed to detect the induction of immunostimulatory cytokines. Serial dilutions (1:5) of Compound IX and other adjuvants were performed with phosphate buffered saline in a 96 well plate for a total of 7 dilutions. 100 μl of freshly drawn human blood from two different donors were mixed and incubated with 100 μl of adjuvant dilutions. Following a 20 hour incubation, plates were centrifuged and supernatants (˜70 μl) were collected, avoiding red blood cells, and stored at −20° C. prior performing MIP-1-α and TNF-α ELISAs using standard biochemical procedures. […] Additionally, these primary donor results mimicked the results seen in human cell lines and extend these important findings in relation to the possible dose ranges and safety profiles for this compound.
A general note: ELISA stands for enzyme-linked immunosorbent assay.

In experiment [1] the test system is ID83 antigen (Mycobacterium tuberculosis antigenic polypeptide)-specific IFN-γ secreting splenocytes. As to the kind of experiment: ELISPOT of IFN-γ cytokine responses of splenocytes from mice vaccinated with ID83 antigen plus adjuvant. Type of experiment: in vivo, Mice (C57BL/6).
For another experiment, the target named is T1, TLR4, MD-2, and CD14 (Homo sapiens, UniProt O00206+Q9Y6Y9).
T1 construct: host or cells: HEK 293
As to the kind of experiment: NF-kB reporter (secreted alkaline phosphatase, QUANTIBlue) assay in HEK 293 cells expressing TLR4, MD-2 and CD14. The class given is cell-based. The protocol: (§1) Compound IX was tested in vitro using HEK 293 cells (InvivoGen) with expression vectors encoding 1) TLR4, MD-2, and CD14, or 2) TLR2 and TLR6 to define compound activity and dependence on TLR4, and to exclude activation of TLR2. These HEK 293 cell lines were further stably transfected with the NF-kB reporter vector pNifty-2 such that alkaline phosphatase is secreted into the growth media upon activation of the TLR signaling pathway. Transfected cell lines were plated at 5×10^4 cells per well in a 96-well plates and stimulated for 16-24 hours cultured in medium containing serial dilutions of Compound IX and other adjuvants. Secreted alkaline phosphatase activity was measured in the culture media using QUANTIBlue® assay (InvivoGen). The data was measured as enhancement of NF-kB above the PBS negative control. […] Compound IX was designed based on structural considerations of the reported atomic structure of MD2 and TLR4. […] Thus, it is expected that Compound IX and other illustrative compounds of the invention can be safely administered over a broad range of concentrations, which is highly desirable in the context of reproducibility of clinical outcomes among patients and for the safety in ranging a dose for adults and children. […]

A further experiment deals with T2, TLR2 and TLR6 (Homo sapiens, UniProt O60603+Q9Y2C9).
T2 construct: host or cells: HEK 293
Kind of experiment: NF-kB reporter (secreted alkaline phosphatase, QUANTIBlue) assay in HEK 293 cells expressing TLR2 and TLR6. The class given is cell-based. The note with it: HEK 293 cells with TLR2, TLR6 and NF-kB reporter. The protocol: as §1

T1 sequence (O00206 24-839): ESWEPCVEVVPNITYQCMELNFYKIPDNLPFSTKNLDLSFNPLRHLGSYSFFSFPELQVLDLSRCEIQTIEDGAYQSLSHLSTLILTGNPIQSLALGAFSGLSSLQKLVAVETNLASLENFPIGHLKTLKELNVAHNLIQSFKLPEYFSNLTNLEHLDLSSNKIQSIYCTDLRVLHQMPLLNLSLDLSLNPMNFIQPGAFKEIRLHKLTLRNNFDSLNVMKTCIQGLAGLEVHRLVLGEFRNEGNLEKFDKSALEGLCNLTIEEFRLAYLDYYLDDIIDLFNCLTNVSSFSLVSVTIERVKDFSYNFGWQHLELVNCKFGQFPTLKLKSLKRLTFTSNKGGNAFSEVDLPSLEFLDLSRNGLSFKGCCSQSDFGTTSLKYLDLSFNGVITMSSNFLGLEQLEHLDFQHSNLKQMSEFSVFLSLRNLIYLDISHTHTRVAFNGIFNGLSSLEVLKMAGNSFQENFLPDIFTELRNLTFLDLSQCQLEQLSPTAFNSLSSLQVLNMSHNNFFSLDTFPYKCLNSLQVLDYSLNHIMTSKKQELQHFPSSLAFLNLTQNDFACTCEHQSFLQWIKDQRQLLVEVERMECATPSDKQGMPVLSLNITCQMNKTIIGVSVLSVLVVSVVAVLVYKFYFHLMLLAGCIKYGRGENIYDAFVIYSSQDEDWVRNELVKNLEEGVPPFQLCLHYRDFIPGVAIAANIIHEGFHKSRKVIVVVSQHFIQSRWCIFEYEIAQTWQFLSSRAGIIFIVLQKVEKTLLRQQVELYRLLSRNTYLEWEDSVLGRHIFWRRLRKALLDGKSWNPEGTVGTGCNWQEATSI
T1 sequence (Q9Y6Y9 17-160 limits assumed): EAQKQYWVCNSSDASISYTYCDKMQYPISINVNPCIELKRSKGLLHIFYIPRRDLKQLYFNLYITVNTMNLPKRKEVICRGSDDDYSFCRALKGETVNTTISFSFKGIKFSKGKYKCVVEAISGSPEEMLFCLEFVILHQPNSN
T2 sequence (O60603 21-784): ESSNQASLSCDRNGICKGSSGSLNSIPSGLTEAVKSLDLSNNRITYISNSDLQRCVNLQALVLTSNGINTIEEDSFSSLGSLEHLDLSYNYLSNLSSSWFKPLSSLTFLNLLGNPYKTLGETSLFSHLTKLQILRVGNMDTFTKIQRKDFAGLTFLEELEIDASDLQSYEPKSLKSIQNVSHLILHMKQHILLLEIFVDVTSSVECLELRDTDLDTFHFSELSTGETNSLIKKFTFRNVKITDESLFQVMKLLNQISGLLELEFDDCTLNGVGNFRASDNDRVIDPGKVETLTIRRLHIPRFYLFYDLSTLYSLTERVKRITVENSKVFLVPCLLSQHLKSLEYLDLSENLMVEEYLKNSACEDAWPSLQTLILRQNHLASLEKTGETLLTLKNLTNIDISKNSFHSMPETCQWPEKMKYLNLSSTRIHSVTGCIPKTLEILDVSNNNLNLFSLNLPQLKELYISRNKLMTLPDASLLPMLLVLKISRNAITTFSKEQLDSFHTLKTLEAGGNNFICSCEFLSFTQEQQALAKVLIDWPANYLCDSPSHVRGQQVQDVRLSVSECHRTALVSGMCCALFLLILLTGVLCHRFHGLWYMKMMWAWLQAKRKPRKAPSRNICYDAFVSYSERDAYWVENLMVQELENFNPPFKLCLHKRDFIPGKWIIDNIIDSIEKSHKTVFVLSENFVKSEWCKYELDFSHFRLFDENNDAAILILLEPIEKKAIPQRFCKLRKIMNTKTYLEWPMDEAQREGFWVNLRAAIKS
T2 sequence (Q9Y2C9 32-796): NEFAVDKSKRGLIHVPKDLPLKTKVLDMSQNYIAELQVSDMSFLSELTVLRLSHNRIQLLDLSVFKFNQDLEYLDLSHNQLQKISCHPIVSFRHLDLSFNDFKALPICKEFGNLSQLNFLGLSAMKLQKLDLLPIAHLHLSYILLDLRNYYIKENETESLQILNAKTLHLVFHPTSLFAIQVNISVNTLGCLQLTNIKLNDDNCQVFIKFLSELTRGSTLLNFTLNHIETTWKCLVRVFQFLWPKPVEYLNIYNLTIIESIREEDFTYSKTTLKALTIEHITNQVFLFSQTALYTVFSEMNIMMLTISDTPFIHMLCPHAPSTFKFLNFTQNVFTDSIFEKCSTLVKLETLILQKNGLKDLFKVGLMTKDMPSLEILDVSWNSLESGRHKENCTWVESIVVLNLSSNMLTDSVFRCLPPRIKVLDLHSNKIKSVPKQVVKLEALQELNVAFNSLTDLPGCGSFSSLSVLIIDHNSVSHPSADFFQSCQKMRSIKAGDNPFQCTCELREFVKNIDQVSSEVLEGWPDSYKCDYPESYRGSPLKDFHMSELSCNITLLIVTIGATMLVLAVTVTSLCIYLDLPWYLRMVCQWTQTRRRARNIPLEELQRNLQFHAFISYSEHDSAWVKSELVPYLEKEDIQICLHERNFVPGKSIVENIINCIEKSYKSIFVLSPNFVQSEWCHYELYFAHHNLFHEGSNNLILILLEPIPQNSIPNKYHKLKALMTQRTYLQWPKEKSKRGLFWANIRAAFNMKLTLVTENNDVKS

Consider `CCCCCCCCCCC[C@@H](O)CC(=O)N[C@@H]1C(O)OC(CO[C@@H]2OC(CO)[C@@H](OP(=O)(O)O)[C@H](OC(=O)C[C@@H](CCCCCCCCCCC)OC(=O)CCCCCCCCC)[C@@H]2NC(=O)C[C@@H](CCCCCCCCCCC)OC(=O)CCCCCCCCC)[C@@H](O)[C@@H]1OC(=O)C[C@H](O)CCCCCCCCCCC` (stereo partly drawn) [Compound IX, (3R)-((2R,3S,4R,5S)-3-((R)-3-(DECANOYLOXY)TETRADECANAMIDO)-2-(((3S,4R,5S)-3,6-DIHYDROXY-5-((R)-3-HYDROXYTETRADECANAMIDO)-4-((R)-3-HYDROXYTETRADECANOYLOXY)TETRAHYDRO-2H-PYRAN-2-YL)METHOXY)-6-(HYDROXYMETHYL)-5-(PHOSPHONOOXY)TETRAHYDRO-2H-PYRAN-4-YL) 3-(DECANOYLOXY)TETRADECANOATE], for which the “immunostimulatory activity (induction of MIP-1-α and TNF-α)” value with human whole blood cells was “has immunostimulatory activity in primary human blood cells”. Further, the “ID83 antigen-specific IFN-γ cytokine responses (IFN-γ secreting cells per million of splenocytes, ELISPOT)” value in experiment [1] (C57BL/6 mice, 8 μg ID83 + 10 μg adjuvant in stable emulsion, three immunizations at three-week intervals, three weeks after the third immunization) is on record as “induced robust ID83 antigen-specific cytokine responses”. The “type of antigen-specific immune response induced (conclusion)” value in experiment [1] (Compound IX in a stable oil formulation with ID83) is reported as “induced predominantly antigen-specific immune responses of the cellular type (T cell) associated with the protective TH1 phenotype”. Moreover, at TLR4, MD-2, and CD14 (HEK 293 cells with TLR4, MD-2, CD14 and NF-kB reporter), the TLR4 agonist activity result is listed as “clear TLR4 agonist activity”. On TLR4, MD-2, and CD14 (serial dilutions), the “shape of profile with increasing concentration” value is on record as “plateaus rapidly as concentrations are increased”. Besides, the “induction of TLR2” value on TLR2 and TLR6 is on record as “did not appear to be associated with induction of TLR2”.
